The test system of one assay is S.aureus. It counts as cell-based, Staphylococcus aureus. Here is the method:
(§1) This assay was used to determine the minimum concentration of a test compound (i.e., an antimicrobial peptide described herein) able to inhibit the growth of a bacterial strain of interest. This is a standard method for measuring and comparing the potency of peptide-based antibacterial agents (Steinberg et al., Antimicrobial Agents and Chemotherapy 1997, 41 (8) 1738 - 1742 and Wiegand et al., Nature Protocols 2008, 3, 163-175).
(§2) The MIC is reported in units of μg/mL.
(§3) Bacterial cultures were grown by inoculating Mueller-Hinton Broth (MHB) with 3 or 4 representative colony (typical size, color, and shape) from a bacterial strain grown on a LB agar plate. Inoculated liquid cultures were grown at 37° C. with moderate shaking (200-250 rpm) until bacteria produced a visibly turbid suspension. Bacterial inoculum was approximated by measuring the optical density at 600 nm (0D600) of the bacterial culture against a sterile MHB blank. Typically, OD600=0.10 corresponds to ˜1×10^8 cfu/mL for S.aureus and OD600 =0.15 corresponds to ˜1×10^8 cfu/mL for E.coli.
(§4) Test compounds were prepared as stock solutions in vehicle at a concentration 10 times the highest concentration to be tested for antibacterial activity (usually 320 μg/mL stock solutions). 2x serial dilutions in vehicle (at 10× the final test concentrations) of the test compounds were prepared from the test compound stock solutions in a non-binding 96 well plate.
(§5) In a sterile clear flat bottom 96 well plate, 15 μL of each test compound dilution was added to 135 μL of ˜5×10^5 cfu/mL bacterial culture. Each concentration was tested in duplicate. Each experiment contained positive control wells for bacterial growth (i.e., no test compound added to bacteria) and sterility controls wells (i.e., sterile MHB and no test compounds added). 96 well plates containing bacterial cultures and test compounds were incubated at 37° C. for 16-20 hours with shaking at 200 rpm.
(§6) After incubation, the MIC of each test compound was determined by measuring the OD600 of each well using a plate reader. Wells with OD600 >0.08 were considered to have bacterial growth and wells with OD600<0.08 were considered to have no bacterial growth. The lowest concentration of test agent able to inhibit bacterial growth (0D600<0.08 after 16-20 hours) was defined as the MIC.

The next assay has as its system E.coli. The assay is classed as cell-based, Escherichia coli. Conditions: for MIC ratio Coli/Staph: ratio of E. coli MIC to S. aureus MIC. Here is the method:
as §1, §2, §3, §4, §5, §6

The mark [1] stands for this setting: broth microdilution, Example 17a.

Values after ≈ are worked out from the molar mass of the structure shown. Read-outs that look alike come from different tables or passages of the source. Bridge positions count the residues as written; N and C are the ends. Square brackets hold non-standard residues; d marks the D form. Peptide text beside a SMILES is read from it. 1Nal = N[C@@H](Cc1cccc2ccccc12)C(=O)O; d(aIle) = CC[C@H](C)[C@@H](N)C(=O)O; dNMeF = CN[C@H](Cc1ccccc1)C(=O)O; hArg = N=C(N)NCCCC[C@H](N)C(=O)O

As for `CC[C@H](C)[C@H](NC(=O)[C@@H](Cc1ccccc1)NC)C(=O)N[C@@H](CO)C(=O)N[C@H](CCC(N)=O)C(=O)N[C@@H](C(=O)N[C@H](C(=O)N[C@@H](CO)C(=O)N[C@H]1C(=O)N[C@@H](C)C(=O)N[C@@H](CCCNC(=N)N)C(=O)N[C@@H]([C@@H](C)CC)C(=O)O[C@H]1C)[C@@H](C)CC)[C@@H](C)CC` [Arg10-teixobactin], the “MIC S. aureus” value against S.aureus lay in the range of 0.25 to 0.5 µg/mL. The “MIC B. fragilis” value against B. fragilis is more than 32 µg/mL. Moreover, in the assay with C. difficile, the “MIC C. difficile” value worked out at 0.12 µg/mL (≈ 0.0964 µM). In the assay on E.coli, the “MIC E. coli” value was more than 16 µg/mL and the “MIC ratio Coli/Staph” value is reported as more than 64.

On to `CC[C@H](C)[C@H](NC(=O)[C@@H](Cc1ccccc1)NC)C(=O)N[C@@H](CCCCN)C(=O)N[C@H](CCC(N)=O)C(=O)N[C@@H](C(=O)N[C@H](C(=O)N[C@@H](CO)C(=O)N[C@H]1C(=O)N[C@@H](C)C(=O)N[C@@H](CCCCNC(=N)N)C(=O)N[C@@H]([C@@H](C)CC)C(=O)O[C@H]1C)[C@@H](C)CC)[C@@H](C)CC` [Compound 1, H-D-MePhe-Ile-Lys-D-Gln-D-aIle-Ile-Ser-c(D-Thr-Ala-Har-Ile)] (H-[dNMeF]IK[dQ][d(aIle)]IS[dT]A[hArg]I; ester 8-C), for which, in the assay on S.aureus (setting [1]), the “MIC S. aureus” value stood at 0.06 µg/mL (≈ 0.0462 µM). Also, the “MIC B. fragilis” value in the assay with B. fragilis is more than 32 µg/mL. Moreover, the “MIC C. difficile” value against C. difficile is less than 0.03 µg/mL. In addition, the “MIC E. coli” value with E.coli (setting [1]) is 4 µg/mL (≈ 3.08 µM). Besides, in the assay on E.coli, the “MIC ratio Coli/Staph” value worked out at 67.

On to `CC[C@H](C)[C@H](NC(=O)[C@@H](Cc1ccccc1)NC)C(=O)N[C@@H](Cc1c[nH]c2ccccc12)C(=O)N[C@H](CCC(N)=O)C(=O)N[C@@H](C(=O)N[C@H](C(=O)N[C@@H](CO)C(=O)N[C@H]1C(=O)N[C@@H](C)C(=O)N[C@@H](CCCCNC(=N)N)C(=O)N[C@@H]([C@@H](C)CC)C(=O)O[C@H]1C)[C@@H](C)CC)[C@@H](C)CC` [Compound 2, H-D-MePhe-Ile-Trp-D-Gln-D-aIle-Ile-Ser-c(D-Thr-Ala-Har-Ile)], for which the “MIC S. aureus” value with S.aureus was 0.09 µg/mL (≈ 0.0663 µM). Also, the “MIC B. fragilis” value in the assay on B. fragilis was more than 32 µg/mL. Besides, the “MIC C. difficile” value against C. difficile came out at 0.06 µg/mL (≈ 0.0442 µM). Also, in the assay on E.coli, the “MIC E. coli” value is more than 32 µg/mL and the “MIC ratio Coli/Staph” value is more than 356.

With `CC[C@H](C)[C@H](NC(=O)[C@@H](Cc1ccccc1)NC)C(=O)N[C@@H](Cc1cccc2ccccc12)C(=O)N[C@H](CCC(N)=O)C(=O)N[C@@H](C(=O)N[C@H](C(=O)N[C@@H](CO)C(=O)N[C@H]1C(=O)N[C@@H](C)C(=O)N[C@@H](CCCCN)C(=O)N[C@@H]([C@@H](C)CC)C(=O)O[C@H]1C)[C@@H](C)CC)[C@@H](C)CC` [Compound 3, H-D-MePhe-Ile-1Nal-D-Gln-D-aIle-Ile-Ser-c(D-Thr-Ala-Lys-Ile)] (H-[dNMeF]I[1Nal][dQ][d(aIle)]IS[dT]AKI; ester 8-C), the “MIC S. aureus” value against S.aureus worked out at 0.09 µg/mL (≈ 0.0678 µM). Moreover, in the assay on E.coli, the “MIC E. coli” value was more than 32 µg/mL and the “MIC ratio Coli/Staph” value is reported as more than 356.

On to `CC[C@H](C)[C@H](NC(=O)[C@H](N)Cc1ccc(Cl)cc1)C(=O)N[C@@H](CO)C(=O)N[C@H](CCC(N)=O)C(=O)N[C@@H](C(=O)N[C@H](C(=O)N[C@@H](CO)C(=O)N[C@H]1C(=O)N[C@@H](C)C(=O)N[C@@H](CCCCN)C(=O)N[C@@H]([C@@H](C)CC)C(=O)O[C@H]1C)[C@@H](C)CC)[C@@H](C)CC` [Compound 4, H-D-Phe(4-Cl)-Ile-Ser-D-Gln-D-aIle-Ile-Ser-c(D-Thr-Ala-Lys-Ile)], for which, in the assay with S.aureus, the “MIC S. aureus” value was determined as 0.13 µg/mL (≈ 0.105 µM). The “MIC B. fragilis” value in the assay with B. fragilis was more than 32 µg/mL. Moreover, the “MIC C. difficile” value in the assay with C. difficile fell in the range of 0.06 to 0.12 µg/mL. In the assay on E.coli, the “MIC E. coli” value was 8 µg/mL (≈ 6.47 µM) and the “MIC ratio Coli/Staph” value is on record as 62.

As to `CC[C@H](C)[C@H](NC(=O)[C@@H](Cc1ccccc1)NC)C(=O)N[C@@H](CO)C(=O)N[C@H](CCC(N)=O)C(=O)N[C@@H](C(=O)N[C@H](C(=O)N[C@@H](CO)C(=O)N[C@H]1C(=O)N[C@@H](C)C(=O)N[C@@H](CCCCNC(=N)NC)C(=O)N[C@@H]([C@@H](C)CC)C(=O)O[C@H]1C)[C@@H](C)CC)[C@@H](C)CC` [Compound 6, H-D-MePhe-Ile-Ser-D-Gln-D-aIle-Ile-Ser-c(D-Thr-Ala-Har(Me)-Ile)], the “MIC S. aureus” value with S.aureus came out at 0.13 µg/mL (≈ 0.102 µM). Also, the “MIC B. fragilis” value in the assay on B. fragilis is more than 32 µg/mL. In addition, the “MIC C. difficile” value with C. difficile came out at 0.03 µg/mL (≈ 0.0236 µM). Further, in the assay on E.coli, the “MIC E. coli” value turned out to be 8 µg/mL (≈ 6.29 µM) and the “MIC ratio Coli/Staph” value stood at 62.

For the compound `CC[C@H](C)[C@H](NC(=O)[C@@H](Cc1ccccc1)NC)C(=O)N[C@@H](Cc1c[nH]c2ccccc12)C(=O)N[C@H](CCC(N)=O)C(=O)N[C@@H](C(=O)N[C@H](C(=O)N[C@@H](CO)C(=O)N[C@H]1C(=O)N[C@@H](C)C(=O)N[C@@H](CCCCN)C(=O)N[C@@H]([C@@H](C)CC)C(=O)O[C@H]1C)[C@@H](C)CC)[C@@H](C)CC` [Compound 7, H-D-MePhe-Ile-Trp-D-Gln-D-aIle-Ile-Ser-c(D-Thr-Ala-Lys-Ile)] (H-[dNMeF]IW[dQ][d(aIle)]IS[dT]AKI; ester 8-C), the “MIC S. aureus” value against S.aureus is 0.13 µg/mL (≈ 0.0988 µM). For the same compound, the “MIC B. fragilis” value with B. fragilis is more than 32 µg/mL. Besides, the “MIC C. difficile” value against C. difficile (anaerobic broth microdilution, read after 44-48 hours, Example 17b) was not above 0.03 to 0.06 µg/mL. In addition, in the assay on E.coli, the “MIC E. coli” value is 32 µg/mL (≈ 24.3 µM) and the “MIC ratio Coli/Staph” value is given as 246.

With `CC[C@H](C)[C@H](NC(=O)[C@@H](Cc1ccccc1)NC)C(=O)N[C@@H](CCCCN)C(=O)N[C@H](CCC(N)=O)C(=O)N[C@@H](C(=O)N[C@H](C(=O)N[C@@H](CO)C(=O)N[C@H]1C(=O)N[C@@H](C)C(=O)N[C@@H](CCCCN)C(=O)N[C@@H]([C@@H](C)CC)C(=O)O[C@H]1C)[C@@H](C)CC)[C@@H](C)CC` [Compound 8, H-D-MePhe-Ile-Lys-D-Gln-D-aIle-Ile-Ser-c(D-Thr-Ala-Lys-Ile)] (H-[dNMeF]IK[dQ][d(aIle)]IS[dT]AKI; ester 8-C), the “MIC S. aureus” value in the assay with S.aureus (setting [1]) was determined as 0.13 µg/mL (≈ 0.103 µM). In addition, the “MIC B. fragilis” value against B. fragilis is more than 32 µg/mL. Further, the “MIC C. difficile” value against C. difficile turned out to be 0.06 µg/mL (≈ 0.0477 µM). The “MIC E. coli” value in the assay on E.coli (setting [1]) worked out at 4 µg/mL (≈ 3.18 µM). The “MIC ratio Coli/Staph” value with E.coli was 31.

Consider `CC[C@H](C)[C@H](NC(=O)[C@H](NC(=O)[C@@H](CCC(N)=O)NC(=O)[C@H](CO)NC(=O)[C@H](CC(C)C)NC(=O)[C@@H](Cc1ccccc1)NC)[C@@H](C)CC)C(=O)N[C@@H](CO)C(=O)N[C@H]1C(=O)N[C@@H](C)C(=O)N[C@@H](CCCCN)C(=O)N[C@@H]([C@@H](C)CC)C(=O)O[C@H]1C` [Compound 10, H-D-MePhe-Leu-Ser-D-Gln-D-aIle-Ile-Ser-c(D-Thr-Ala-Lys-Ile)] (H-[dNMeF]LS[dQ][d(aIle)]IS[dT]AKI; ester 8-C), for which, in the assay with S.aureus, the “MIC S. aureus” value was 0.19 µg/mL (≈ 0.156 µM). Besides, in the assay on E.coli, the “MIC E. coli” value came to 16 µg/mL (≈ 13.2 µM) and the “MIC ratio Coli/Staph” value was determined as 84.

Turning to `CC[C@H](C)[C@H](NC(=O)[C@@H](Cc1ccccc1)NC)C(=O)N[C@@H](CO)C(=O)N[C@H](Cc1c[nH]c2ccccc12)C(=O)N[C@@H](C(=O)N[C@H](C(=O)N[C@@H](CO)C(=O)N[C@H]1C(=O)N[C@@H](C)C(=O)N[C@@H](CCCCN)C(=O)N[C@@H]([C@@H](C)CC)C(=O)O[C@H]1C)[C@@H](C)CC)[C@@H](C)CC` [Compound 13, H-D-MePhe-Ile-Ser-D-Trp-D-aIle-Ile-Ser-c(D-Thr-Ala-Lys-Ile)] (H-[dNMeF]IS[dW][d(aIle)]IS[dT]AKI; ester 8-C), the “MIC S. aureus” value against S.aureus is 0.25 µg/mL (≈ 0.196 µM). Also, in the assay on E.coli, the “MIC E. coli” value was found to be 16 µg/mL (≈ 12.6 µM) and the “MIC ratio Coli/Staph” value is 64.
